Measured values published in publication PMC3627854 (Osteoporosis International, 2012).

Biological target: T1, IKKα (Mus musculus, UniProt Q60680)
T1 sequence (Q60680 1-745): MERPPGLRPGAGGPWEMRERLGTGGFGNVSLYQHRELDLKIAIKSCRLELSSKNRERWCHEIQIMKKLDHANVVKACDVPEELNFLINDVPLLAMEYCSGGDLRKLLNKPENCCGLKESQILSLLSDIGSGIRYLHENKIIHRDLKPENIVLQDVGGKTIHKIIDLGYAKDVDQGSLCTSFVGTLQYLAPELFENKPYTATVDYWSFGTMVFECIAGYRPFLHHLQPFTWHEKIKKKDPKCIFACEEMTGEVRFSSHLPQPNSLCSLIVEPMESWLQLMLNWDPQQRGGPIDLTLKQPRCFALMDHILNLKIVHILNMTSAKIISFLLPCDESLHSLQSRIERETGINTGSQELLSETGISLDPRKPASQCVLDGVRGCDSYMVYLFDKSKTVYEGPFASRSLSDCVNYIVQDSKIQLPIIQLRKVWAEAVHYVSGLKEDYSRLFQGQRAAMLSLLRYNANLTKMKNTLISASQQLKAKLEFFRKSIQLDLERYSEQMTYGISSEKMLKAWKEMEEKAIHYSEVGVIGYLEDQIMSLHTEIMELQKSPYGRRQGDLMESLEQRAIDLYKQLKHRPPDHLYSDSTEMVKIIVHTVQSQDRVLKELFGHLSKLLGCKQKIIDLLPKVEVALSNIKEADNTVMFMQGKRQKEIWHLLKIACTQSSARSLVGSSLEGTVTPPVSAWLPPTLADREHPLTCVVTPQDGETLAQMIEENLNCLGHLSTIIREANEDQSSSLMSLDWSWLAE
Experiment: IKKα KinEASE FP kinase activity assay, RANKL-stimulated RAW […] cells
Type: cell-based

IC50: ~57.6 µM
Structure (SMILES): O=C1C[C@@H](O[C@@H]2O[C@H](CO)[C@@H](O)[C@H](O)[C@H]2O)CO1 [kinsenoside, 3-(R)-3-β-D-glucopyranosyloxybutanolide]
